Article PMC9437101, “Curcumin-based-fluorescent probes targeting ALDH1A3 as a promising tool for glioblastoma precision surgery and early diagnosis” (Communications Biology, 2022)

Columns and labels:
[1] = target: T1, ALDH1A2 (Homo sapiens, UniProt O94788); test: Enzymatic inhibition assay with acetaldehyde; format: biochemical; details: up to highest probe concentration
T1 construct: E. coli BL21 (DE3) were transformed with the full-length expression vector of each isoform; His-tag; made in house; host or cells: E. coli BL21 (DE3)
T1 sequence (O94788 1-518): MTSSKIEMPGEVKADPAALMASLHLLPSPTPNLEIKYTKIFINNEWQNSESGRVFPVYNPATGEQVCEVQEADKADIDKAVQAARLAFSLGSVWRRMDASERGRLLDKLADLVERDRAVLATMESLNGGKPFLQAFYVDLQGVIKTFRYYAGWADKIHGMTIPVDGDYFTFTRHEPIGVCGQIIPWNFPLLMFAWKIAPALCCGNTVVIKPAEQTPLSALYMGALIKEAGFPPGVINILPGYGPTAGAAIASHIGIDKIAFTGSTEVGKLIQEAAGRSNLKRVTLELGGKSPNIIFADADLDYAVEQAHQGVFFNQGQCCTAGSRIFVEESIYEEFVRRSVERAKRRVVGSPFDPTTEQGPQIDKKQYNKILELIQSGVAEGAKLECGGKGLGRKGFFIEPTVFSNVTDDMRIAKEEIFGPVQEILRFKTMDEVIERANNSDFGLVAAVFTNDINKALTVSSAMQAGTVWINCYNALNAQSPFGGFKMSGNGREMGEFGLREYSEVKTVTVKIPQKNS
Description: (§1) Initially, the inhibitory activities of our fluorescent probes were screened at a fixed concentration of 50 μM using a Tecan Sunrise 96 Multiplate Reader with Greiner Bio-One 96-UV-Transparent Microplates. The analysis was performed in triplicate in a total volume of 100 μl per well containing 20 mM Tris HCl pH 8.0, 1 mM β-mercaptoethanol, 150 mM KCl, 500 μM NAD^+, […], 2.8 μM hALDH1A and 20 mM acetaldehyde. Afterwards, the inhibitory potency of the fluorescent probes was further investigated, evaluating the IC50 parameter. The enzymatic inhibition assays were performed in triplicate in a total volume of 100 μl per well containing 20 mM Tris HCl pH 8.0, 1 mM β-mercaptoethanol, 150 mM KCl, 500 μM NAD^+, 2.8 μM hALDH1A and 20 mM acetaldehyde in the presence of different probe concentrations, from 200 μM to 1.5625 μM. The DMSO final concentration allowed was up to 15%. Only for ALDH1A3 in complex with Probe 10, the Ki affinity parameter was calculated by performing the analysis in triplicate in a total volume of 100 μl per well containing 20 mM Tris HCl pH 8.0, 1 mM β-mercaptoethanol, 150 mM KCl, 500 μM NAD^+ and 2.8 μM ALDH1As. Due to chemical nature of Probe 10 and Probe 11, we set up the enzymatic assay assuming a competitive inhibition using different compounds concentration, from 200 μM to 1 μM, and different acetaldehyde concentrations, from 20 mM to 2.5 mM. Each reaction mix was preincubated for 10 min at 25 °C before the analysis. The catalytic activity was measured by monitoring the absorbance at 340 nm (εNADH = 6220 M^−^1 cm^−1) for 30 min at 25 °C and the inhibitory parameters were calculated by processing the raw data on SigmaPlot[53].

[2] = target: T2, ALDH1A1 (Homo sapiens, UniProt P00352); test: Enzymatic inhibition assay with acetaldehyde; format: biochemical; details: up to highest probe concentration
T2 construct: E. coli BL21 (DE3) were transformed with the full-length expression vector of each isoform; His-tag; made in house; host or cells: E. coli BL21 (DE3)
T2 sequence (P00352 1-501): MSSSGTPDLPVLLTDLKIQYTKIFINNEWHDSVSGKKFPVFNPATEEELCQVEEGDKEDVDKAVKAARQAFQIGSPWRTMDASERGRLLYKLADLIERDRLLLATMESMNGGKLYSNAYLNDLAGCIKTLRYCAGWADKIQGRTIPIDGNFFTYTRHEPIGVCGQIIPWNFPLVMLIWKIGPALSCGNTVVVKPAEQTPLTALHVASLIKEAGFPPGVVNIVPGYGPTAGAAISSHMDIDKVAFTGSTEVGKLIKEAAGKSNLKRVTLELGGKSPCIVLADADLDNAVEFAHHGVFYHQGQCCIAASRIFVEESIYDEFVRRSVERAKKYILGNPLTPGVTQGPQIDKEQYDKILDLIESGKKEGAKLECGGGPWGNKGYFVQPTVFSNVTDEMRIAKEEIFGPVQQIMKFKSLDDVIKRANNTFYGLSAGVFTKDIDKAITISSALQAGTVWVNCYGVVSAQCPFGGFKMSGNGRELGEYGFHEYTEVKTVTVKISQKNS
Description: as §1

[3] = target: T3, ALDH1A3 (Homo sapiens, UniProt P47895); test: IC50 and Ki evaluation, enzymatic inhibition with acetaldehyde; format: biochemical
T3 construct: E. coli BL21 (DE3) were transformed with the full-length expression vector of each isoform; His-tag; made in house; host or cells: E. coli BL21 (DE3)
T3 sequence (P47895 1-512): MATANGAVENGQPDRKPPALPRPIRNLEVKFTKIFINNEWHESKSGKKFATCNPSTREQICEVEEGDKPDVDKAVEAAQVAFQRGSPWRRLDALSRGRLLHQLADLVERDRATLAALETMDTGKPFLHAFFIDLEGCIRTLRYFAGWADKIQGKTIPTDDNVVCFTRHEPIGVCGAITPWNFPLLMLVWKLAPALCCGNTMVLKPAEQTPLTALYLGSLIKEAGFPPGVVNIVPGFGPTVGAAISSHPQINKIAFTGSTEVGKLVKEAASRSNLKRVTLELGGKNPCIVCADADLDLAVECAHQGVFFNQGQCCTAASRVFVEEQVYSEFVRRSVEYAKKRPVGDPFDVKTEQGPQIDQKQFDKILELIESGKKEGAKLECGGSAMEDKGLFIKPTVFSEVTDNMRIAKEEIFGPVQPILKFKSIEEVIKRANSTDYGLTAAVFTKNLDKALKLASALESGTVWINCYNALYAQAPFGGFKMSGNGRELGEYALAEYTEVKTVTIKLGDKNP
Description: as §1

[4] = target: T1, ALDH1A2; test: Kd evaluation by fluorescence emission assay; format: binding; details: probe 10 μM, ALDH1A2 100 to 1.1719 μM
Description: To evaluate the Kd constant between the two probes and the isoenzymes ALDH1A1, ALDH1A2 and ALDH1A3A we performed a fluorescence emission assay. We used a Tecan Spark with Greiner Bio-One 96-UV-Transparent Microplates. A single reaction was performed in a total volume of 100 μl per well containing 20 mM Tris HCl pH 8.0, 1 mM β-mercaptoethanol, 150 mM KCl, 500 μM NAD^+ and 10 μM fluorescent probe with a 5% DMSO final concentration, in the presence of different ALDH1As concentrations, from 100 μM to 1.1719 μM. Each reaction mix was preincubated for 10 min at 25 °C before the analysis. The obtained raw data were analyzed using GraphPad to calculate Kd values.

Row | Structure (SMILES) | inhibition of ALDH1A2 [1] | inhibition of ALDH1A1 [2] | inhibition of ALDH1A3 [3] | Kd [4] | mechanism of action (inhibition) [3] | Ki ([3]; acetaldehyde substrate, full competitive model)
1 | CCOC(=O)Cn1cc(COc2ccc(/C=C/C(=O)/C=C(O)/C=C/c3ccc(O)c(OC)c3)cc2OC)nn1 [Probe 11] | no inhibitory effect | no inhibitory effect | no inhibitory effect | 125 µM |  | 
2 | COc1cc(/C=C/C(O)=C/C(=O)/C=C/c2ccc(OCc3cn(CCOc4ccc(C=O)cc4)nn3)c(OC)c2)ccc1O [Probe 10] | Neither of the two other isozymes were inhibited | Neither of the two other isozymes were inhibited | strongly inhibited | 36.9 µM | competitive | 0.88 µM
